Columns and labels:
Trypsin = biological target: T1, Trypsin (Bos taurus, UniProt P00760); test: Anti-trypsin activity (hydrolysis of TAME); format: biochemical; settings: molar concentration inhibiting 50% of TAME hydrolysis; read-out: ID50 trypsin
T1 sequence (P00760 24-246): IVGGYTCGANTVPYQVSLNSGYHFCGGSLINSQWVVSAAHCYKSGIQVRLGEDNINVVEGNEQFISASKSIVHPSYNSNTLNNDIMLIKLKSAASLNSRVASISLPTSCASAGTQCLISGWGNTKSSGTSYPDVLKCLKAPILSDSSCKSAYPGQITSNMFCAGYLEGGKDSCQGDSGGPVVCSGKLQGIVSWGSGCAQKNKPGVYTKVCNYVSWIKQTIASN
Description: (§1) The anti-trypsin, anti-plasmin, anti-kallikrein and anti-thrombin activities were determined according to the method of Muramatsu et al. [M. Muramatus, T. Onishi, S. Makino, Y. Hayashi and S. Fujii, J. of Biochem., 58, 214 (1965)]. The data summarized in Table 1 are expressed in terms of molar concentration (ID50) of the test compound which inhibits 50% of the activity of each enzyme to hydrolyze TAME (tosylalginine methyl ester). The compound No. corresponds to the compound number shown in Examples.

Plasmin = Plasmin (Homo sapiens, UniProt P00747); test: Anti-plasmin activity (hydrolysis of TAME); format: biochemical; settings: for IC50: molar concentration inhibiting 50% of TAME hydrolysis, read-out: ID50 plasmin
Sequence of Plasmin (P00747 581-810 limits assumed, species assumed): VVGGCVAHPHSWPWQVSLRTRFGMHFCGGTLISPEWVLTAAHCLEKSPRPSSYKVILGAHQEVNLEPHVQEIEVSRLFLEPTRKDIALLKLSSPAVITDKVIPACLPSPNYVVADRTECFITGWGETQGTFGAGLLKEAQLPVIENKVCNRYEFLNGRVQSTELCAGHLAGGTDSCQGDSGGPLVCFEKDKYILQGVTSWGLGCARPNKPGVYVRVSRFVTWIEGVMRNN
Sequence of Plasmin (P00747 97-580 partner limits assumed, species assumed): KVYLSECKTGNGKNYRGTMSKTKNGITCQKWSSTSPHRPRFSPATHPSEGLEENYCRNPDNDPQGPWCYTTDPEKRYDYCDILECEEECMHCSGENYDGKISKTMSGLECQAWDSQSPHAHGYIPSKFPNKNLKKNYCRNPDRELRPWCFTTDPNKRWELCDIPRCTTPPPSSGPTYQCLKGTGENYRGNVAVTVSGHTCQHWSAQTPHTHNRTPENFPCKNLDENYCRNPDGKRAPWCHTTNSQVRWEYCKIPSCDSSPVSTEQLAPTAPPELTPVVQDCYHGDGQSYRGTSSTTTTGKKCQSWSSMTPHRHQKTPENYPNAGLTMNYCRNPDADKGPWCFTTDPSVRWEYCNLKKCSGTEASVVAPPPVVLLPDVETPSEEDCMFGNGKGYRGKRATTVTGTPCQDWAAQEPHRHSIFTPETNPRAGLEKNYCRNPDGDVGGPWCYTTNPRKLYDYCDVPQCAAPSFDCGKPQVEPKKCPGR
Description: The anti-trypsin, anti-plasmin, anti-kallikrein and anti-thrombin activities were determined according to the method of Muramatsu et al. [M. Muramatus, T. Onishi, S. Makino, Y. Hayashi and S. Fujii, J. of Biochem., 58, 214 (1965)]. […] The compound No. corresponds to the compound number shown in Examples.

Thrombin = Thrombin (Homo sapiens, UniProt P00734); test: biochemical; settings: molar concentration inhibiting 50% of TAME hydrolysis; read-out: ID50 thrombin
C1r = biological target: T2, C1r (Homo sapiens, UniProt P00736); test: biochemical; settings: molar concentration inhibiting 50% of AAME hydrolysis; read-out: ID50 C1r (Anti-C1 activity)
T2 sequence (P00736 464-705 limits assumed): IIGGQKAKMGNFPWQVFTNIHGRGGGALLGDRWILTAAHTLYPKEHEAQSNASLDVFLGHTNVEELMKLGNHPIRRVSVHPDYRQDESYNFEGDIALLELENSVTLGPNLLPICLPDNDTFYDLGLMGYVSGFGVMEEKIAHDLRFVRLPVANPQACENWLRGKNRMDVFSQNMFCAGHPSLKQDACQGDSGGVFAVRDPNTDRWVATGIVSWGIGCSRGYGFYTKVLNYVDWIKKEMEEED
T2 sequence (P00736 18-463 partner limits assumed): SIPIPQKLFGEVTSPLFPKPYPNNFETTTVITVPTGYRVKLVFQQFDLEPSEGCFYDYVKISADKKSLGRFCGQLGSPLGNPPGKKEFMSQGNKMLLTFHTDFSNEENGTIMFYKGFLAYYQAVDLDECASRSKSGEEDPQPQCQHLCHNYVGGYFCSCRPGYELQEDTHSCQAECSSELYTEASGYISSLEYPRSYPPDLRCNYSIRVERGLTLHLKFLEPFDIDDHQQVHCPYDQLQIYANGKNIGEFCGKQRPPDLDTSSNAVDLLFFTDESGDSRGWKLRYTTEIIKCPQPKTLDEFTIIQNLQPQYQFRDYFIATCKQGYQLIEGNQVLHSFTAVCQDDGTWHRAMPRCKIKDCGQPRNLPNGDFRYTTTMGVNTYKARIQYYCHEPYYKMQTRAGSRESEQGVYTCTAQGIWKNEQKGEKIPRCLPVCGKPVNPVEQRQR

C1s = biological target: T3, C1s (Homo sapiens, UniProt P09871); test: Anti-C1s activity (hydrolysis of ATEE); format: biochemical; settings: molar concentration inhibiting 50% of ATEE hydrolysis; read-out: ID50 C1s (Anti-C1 activity)
T3 sequence (P09871 438-688 limits assumed): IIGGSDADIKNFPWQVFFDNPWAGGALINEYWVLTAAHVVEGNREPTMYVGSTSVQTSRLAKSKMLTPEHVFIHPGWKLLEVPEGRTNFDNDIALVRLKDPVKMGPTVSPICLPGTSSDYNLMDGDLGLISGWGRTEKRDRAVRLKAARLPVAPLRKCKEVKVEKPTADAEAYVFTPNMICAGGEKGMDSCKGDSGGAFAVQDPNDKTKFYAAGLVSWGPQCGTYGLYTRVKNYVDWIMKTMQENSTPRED
T3 sequence (P09871 16-437 partner limits assumed): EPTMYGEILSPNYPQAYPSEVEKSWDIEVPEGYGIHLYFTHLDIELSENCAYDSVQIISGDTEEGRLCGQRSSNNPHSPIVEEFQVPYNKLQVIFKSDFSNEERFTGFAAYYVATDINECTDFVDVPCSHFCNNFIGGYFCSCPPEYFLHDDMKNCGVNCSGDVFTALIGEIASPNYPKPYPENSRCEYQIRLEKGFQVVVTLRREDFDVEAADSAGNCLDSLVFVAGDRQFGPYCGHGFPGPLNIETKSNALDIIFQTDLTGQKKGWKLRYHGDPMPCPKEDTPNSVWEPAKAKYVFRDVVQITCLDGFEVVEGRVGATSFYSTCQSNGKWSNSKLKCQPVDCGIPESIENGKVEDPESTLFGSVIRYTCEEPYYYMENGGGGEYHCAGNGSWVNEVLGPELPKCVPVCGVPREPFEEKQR
Description: The anti-C1 esterase (C1r, C1s) activity was determined according to the method of Okamura et al. [K. Okamura, M. Muramatsu and B. Fujii, Biochem. Biophys. Acta, 295, 252-257 (1973)]. The inhibition of complement mediated hemolysis was determined according to the method of Baker et al. [B. R. Baker and E. H. Erickson, J. Med. Chem. 12, 408-414 (1969)]. The figures in Table 2 have the following meanings:
C1s: Molar concentration of the test compound which inhibits 50% of the ability of C1s to hydrolyse ATEE (acetyltyrosin ethyl ester) (ID50).

complement = test: Inhibition of complement mediated hemolysis; format: cell-based
Description: The complement mediated hemolysis is widely used as a means to determine the titration of complement. The principle of this method is based on the fact that hemolysis is caused by the activation of complement, when the latter is added to a complex (immune complex) of erythrocytes and the antibody thereof. The degree of hemolysis varies in proportion to the amount of complement added. Therefore, when a known amount of complement admixed with a C1 esterase inhibitor is used, the hemolysis must be suppressed in proportion to the inhibitory activity.
The anti-C1 esterase (C1r, C1s) activity was determined according to the method of Okamura et al. [K. Okamura, M. Muramatsu and B. Fujii, Biochem. Biophys. […] The figures in Table 2 have the following meanings: […]

Kallikrein = test: Anti-kallikrein activity (hydrolysis of TAME); format: biochemical; settings: molar concentration inhibiting 50% of TAME hydrolysis; read-out: ID50 kallikrein
Description: as §1

Row | Compound | IC50 (Trypsin) [nM] | IC50 (Plasmin) [nM] | IC50 (Thrombin) [nM] | IC50 (C1r) [nM] | IC50 (C1s) [nM] | Inhibition of complement mediated hemolysis (%) (complement; 1 × 10^-5) | Inhibition of complement mediated hemolysis (%) (complement; 1 × 10^-6) | Inhibition of complement mediated hemolysis (%) (complement; 1 × 10^-7) | IC50 (Kallikrein) [nM] | inhibition at 10 µM (Plasmin; figure in parentheses, at 1×10^-5 M, TAME, read-out: percentage inhibition of plasmin) [%]
1 | CN=C(NC)NCc1ccc(C(=O)Oc2ccc3cc(C(=N)N)ccc3c2)o1 [Compound No. 2, 6-amidino-2-naphthyl 5-(2,3-dimethyl)guanidinomethyl-furan-2-carboxylate] | 2000 | 800 | 900 | 1000 | 1000 | 100 | 100 | 91 | – | –
2 | N=C(N)Nc1ccc(C(=O)Oc2ccc3cc(C(=N)N)ccc3c2)o1 [Compound No. 3] | 100 | 500 | 300 | 700 | 300 | 100 | 100 | 99 | 900 | –
3 | CN(C(=N)N)c1ccc(C(=O)Oc2ccc3cc(C(=N)N)ccc3c2)o1 [compound 4] | 4000 | – | 8000 | 2000 | 300 | 100 | 100 | 59 | 6000 | 42
4 | CNC(=N)Nc1ccc(C(=O)Oc2ccc3cc(C(=N)N)ccc3c2)o1 [compound 5] | 300 | 500 | 200 | 1000 | 300 | 100 | 100 | 96 | 500 | –
5 | CNC(=N)NCc1ccc(C(=O)Oc2ccc3cc(C(=N)N)ccc3c2)o1 [compound 6] | 4000 | 3000 | 2000 | 500 | 1000 | 100 | 100 | 100 | 400 | –
6 | CCNC(=NC)NCc1ccc(C(=O)Oc2ccc3cc(C(=N)N)ccc3c2)o1 [compound 7] | 2000 | 700 | 2000 | 1000 | 2000 | 100 | 100 | 98 | 400 | –
7 | CCN=C(NCC)NCc1ccc(C(=O)Oc2ccc3cc(C(=N)N)ccc3c2)o1 [compound 8] | 2000 | 800 | 1000 | 800 | 2000 | 100 | 100 | 98 | 400 | –

Source: patent US4563527A, “Amidine compounds” (Torii & Co., Ltd., priority 1984, dated 1986)
